# Experiments:
# [1] = system: HIV‐1 LTR (Jurkat^Tat LTR‐DsRed clone #11); experiment: mdHIV LTR‐DsRed reporter assay, clone #11; format: cell-based
# Excerpt: HIV‐1 tends to integrate into actively transcribed regions of the host genome (Jordan et al, 2003; Lewinski et al, 2006; Ikeda et al, 2007). Each HIV‐1‐infected patient carries viral DNA integrated at different chromosomal locations, and as we have previously shown, the site of viral integration influences how latently infected T cells respond to different stimuli (Hashemi et al, 2016). Therefore, an ideal LRA should be capable of disrupting latency in cell models carrying integrated viral reporters at multiple different regions within the host genome. To assess this capability for the PH compounds, we used two additional previously described cell lines, designated Jurkat^Tat LTR‐DsRed clones #11, and #131, that carry a mini‐dual fluorescent HIV‐1 LTR reporter (mdHIV) at different chromosomal locations. The minivirus mdHIV has two fluorescent reporters in which DsRed expression is driven from the 5′ LTR, and eGFP is constitutively expressed from an internal EIF‐1α promoter (Fig 5A). […]
# Figure 5 Effect of PH02 on HIV provirus integrated at different chromosomal locations • A The effect of PH compounds was analyzed using clonal lines bearing single‐copy integrations of the mini‐dual fluorescent HIV‐1 LTR reporter, md‐HIV, where GFP is constitutively expressed from the EIF‐1α internal promoter, and DsRed from the 5′ LTR. • B Fluorescence‐activated cell sorting (FACS) of cells bearing md‐HIV provirus indicates expression of EIF‐1α‐GFP and LTR‐dsRed. Stimulation of the md‐HIV lines generally causes a shift of the fluorescence profile from GFP^+/DsRed^− toward GFP^+/DsRed^+. • C, D Clone 11 or clone 131 was treated with the indicated concentrations of PH02 (left panels) or PH02 in combination with 10 nM PEP005 (right panels) for 24 h and cells analyzed by flow cytometry. Results presented as Δmean fluorescence intensity (ΔMFI) of DsRed expression and fold increase in DsRed expression for solo and combination treatments, respectively. Mean and SE are determined from three biological replicates (n = 3) and technical duplicates. […]
# [2] = system: latent HIV‐1 provirus in resting CD4^+ T cells from HIV‐1‐infected patients; experiment: Supernatant HIV‐1 RNA from resting CD4+ T cells of patients (RT–qPCR); format: cell-based; conditions: 30 μM, 24 h
# Method: For this analysis, we purified resting CD4^+ (rCD4^+) T lymphocytes from pools of patient samples by two‐step negative selection (Appendix Table S3). […] Purified rCD4^+ T cells were treated with 30 μM of each PH compound for 24 h, and RNA from the culture supernatants was analyzed by one‐step RT–qPCR, where results are presented as copy numbers of the virion/ml. […] Based on its capability for reactivating latent provirus at multiple chromosomal locations in cell lines, its negligible toxic effect, and that it produces the most robust reactivation of virus from patient samples, we focused our subsequent analysis on this compound (Table 1).
# Figure 8 Effect of PH compounds on expression of HIV provirus in latently infected cells from patients Resting CD4^+ T cells purified from patient samples (n = 18, Appendix Table S3) were treated with 30 μM of each PH compound for 24 h, and HIV‐1 RNA was measured in culture supernatants. Results are presented as HIV virions/ml (mean ± SE). LOD indicates the limit of detection, 100 copies/ml culture supernatant. TEXT PRINTED IN THE PICTURE: PMA: Supernatant HIV-1 mRNA (Copies/ml): 308929.80 (50 nM) | PH01: Supernatant HIV-1 mRNA (Copies/ml): 5348.04 (Single Concentration (30μM)) | PH02: Supernatant HIV-1 mRNA (Copies/ml): 17624.53 (Single Concentration (30μM)) | PH03: Supernatant HIV-1 mRNA (Copies/ml): 4714.11 (Single Concentration (30μM)) | PH04: Supernatant HIV-1 mRNA (Copies/ml): 7134.68 (Single Concentration (30μM)) | PH05: Supernatant HIV-1 mRNA (Copies/ml): 587.19 (Single Concentration (30μM))
# HIV‐1 RNA was measured from 1 × 10^6 resting CD4^+ T lymphocytes treated with 30 μM of each compound. Extracellular RNA was isolated using the ZR Viral RNA Kit (Zymo Research) and total cellular mRNA using the RNeasy MinElute cleanup kit (Qiagen). HIV‐1 RNA concentrations were assayed in one‐step RT–qPCRs using the iTaq™ universal SYBR Green one‐step kit (BIO‐RAD) with the HIV‐1 LTR‐specific primers, AGCCGCCTAGCATTTCATC and […]. RNA copy number was calculated using a standard curve generated from titrated infections with RGH‐PGK virus (Dahabieh et al, 2013). Reproducibility of RT–qPCR analysis was confirmed using a second set of primers within HIV‐1 p24 Gag, AGCAGCCATGCAAATGTTA, […]. HIV‐1 RNA determinations were normalized to GAPDH RNA measured using the primers […] and […].
structure (smiles),measurement,setting,value
"CC(=O)Oc1ccccc1N(C=C1Sc2ccccc2C1=O)C(C)=O [PH02, 2‐{acetyl[(3‐oxo‐1‐benzothien‐2(3H)‐ylidene)methyl]amino}phenyl acetate]","concentration reactivating viral transcription (LTR‐DsRed, ∆MFI)","[1]; PH02 alone, 24 h, serial dilutions 28–0.2 μM",above 1.75 μM
same,PH02 concentration producing increased effects on HIV‐1 LTR transcription with PEP005,"[1]; in combination with 10 nM PEP005, 24 h",above 1.75 μM
same,viral latency‐reversing activity compared to PMA,[2],consistently produced the strongest effect
same,Supernatant HIV-1 mRNA,[2]; LOD 100 copies/ml,17624.53 Copies/ml

# Reference: publication PMC5838563, “Compounds producing an effective combinatorial regimen for disruption of HIV‐1 latency” (EMBO Molecular Medicine, 2017)
